Experiments:
sigma receptor = assay: Radioreceptor assay: sigma receptor, displacement of [^3 H]-3-(+)-PPP; format: binding, male Sprague-Dawley rats; conditions: units ± SEM; rat brain crude membranes; 2 nM [^3 H]-(+)-3-PPP; 1 hr incubation at room temperature; pH 7.4; read-out: Ki apparent
Experimental: To determine the effects of the compounds in a sigma receptor assay, crude membrane preparations were prepared as follows. Brains from male Sprague-Dawley rats were homogenized in 10 volumes (wt/vol) of 0.32M sucrose, using a Polytron grinder. The homogenate was centrifuged at 900×G for 10 minutes at 4° C. The supernatant was collected and centrifuged at 22,000×g for 20 minutes at 4° C. The pellet was resuspended in 10 volumes of 50 mM Tris/HCl buffer (pH 7.4) and centrifuged at 22,000×g for 20 minutes at 4° C. The pellet was resuspended in 5 mM Tris/HCl buffer (pH 7.4) to give a final concentration of 250 mg/ml of the crude material. Incubation tubes were prepared in triplicate and contained 0.1 ml of tissue suspension, 2 nM of [^3 H]-(+)-1-propyl-3-(3-hydroxyphenyl)piperidine [^3 H]-3-(+)-PPP, and varying concentrations of the displacing ligand (0.1-1,000 nM) in a final volume of 0.5 ml. After a 1 hr incubation at room temperature, the contents of the test tubes were filtered through GS filter paper which had been presoaked for at least 2 hours in 0.05% polyethyleneimine. The test tubes were rinsed three times with Tris/HCl buffer. Radioactivity on the filters was determined using liquid scintillation spectrometry and inhibition curves were calculated according to the method of Cheng and Prusoff [Biochem. Pharmacol., 22, 3099-3108 (1973)].

[1] = Blockade of agonist (N-allylnormetazocine)-induced stereotyped behavior and ataxia; format: in vivo; conditions: 1 mg/kg i.p. test compound; 15 mg/kg i.p. N-allylnormetazocine
Experimental: Compounds of the invention were evaluated for their ability to block the effects of N-allylnormetazocine on the induction of stereotyped behavior and ataxia. To test for antagonism, drugs are administered at varying times before i.p. administration of 15 mg/kg of N-allylnormetazocine. Behavioral and ataxia ratings are taken at 2.5 minutes, 5 minutes, and every 5 minutes thereafter until the animal returns to control behavior. […] The lowest dose of the test compound which is capable of blocking the stereotyped behavior and ataxia induced by N-allylnormetazocine was determined.

With c1ccc2c(c1)C1CCC2C(N2CCCCC2)CC1 (stereo not drawn) [Compound No. 1, exo- and endo-1-(2-Benzobicyclo[3.2.2]nonenyl)piperidine] the Ki (sigma receptor) was 6 ± 1 nM and the “block of N-allylnormetazocine-induced stereotyped behavior” value [1] was “fully blocked”.

With CN1CCN(C2CCC3CCC2c2ccccc23)CC1 (stereo not drawn) [Compound No. 5] the Ki (sigma receptor) was 16000 ± 4000 nM.

OCCN1CCN(C2CCC3CCC2c2ccccc23)CC1 (stereo not drawn) [Compound No. 4, endo- and exo-1-(2-Benzobicyclo[3.2.2]nonenyl)-4-(2-hydroxyethyl)piperazine] showed a Ki (sigma receptor) of 305 ± 20 nM.

c1ccc2c(c1)C1CCC2C(N2CCCCC2)CC1 (stereo not drawn) [Compound No. 2, exo-1-(2-Benzobicyclo[3.2.2]nonenyl)piperidine] gave a Ki (sigma receptor) of 10 ± 2 nM.

Work on c1ccc2c(c1)C1CCC2C(N2CCCCC2)CC1 (stereo not drawn) [Compound No. 3, endo-1-(2-Benzobicyclo[3.2.2]nonenyl)piperidine] yielded a Ki (sigma receptor) of 150 ± 20 nM.

From patent US5098916A, “Propanobicyclic amine derivatives for CNS disorders” (G. D. Searle & Co., priority 1990, dated 1992)
